Target: recombinant 17β-HSD13 protein (Homo sapiens (Human), UniProt Q7Z5P4)
Experiment: 17β-HSD13 biochemical assay (NAD+/NADH Glo chemiluminescence)
Details: 17β-HSD13 50 nM, NAD+ 10 mM, β-estradiol 20 μM, 2 hours room temperature
Method: 17β-HSD13 biochemical assays are generically described in patents WO 2022/020730, WO 2021/003295, and WO 2023/023310. More specifically, recombinant 17β-HSD13 protein was assayed in a buffer containing 200 mM Tris pH 7.5, 0.01% Triton X-100, and 0.02% BSA into a 384-well assay plate. Compounds were incubated with 17β-HSD13 (final 50 nM) and NAD+ (final 10 mM) at room temperature for 1 h prior to substrate addition. The assay reaction was then initiated by addition of β-estradiol (final 20 μM), and the reaction mixture was incubated for 2 hours at room temperature. Product formation was detected with chemiluminescence by adding equal volume of NAD+/NADH Glo reagent (Promega, #G9062) and read on a PHERAstar microplate reader (BMG LABTECH). IC50 values were determined with GraphPad Prism®, where log-transformed concentration values and the inhibition data were fitted to a four-parameter logistic equation. Y=Bottom+(Top−Bottom)/(1+10^((Log IC50−X)*HillSlope)). The original, % control, or % inhibition data are represented by Y along with their minimal (Bottom) and maximal (Top) values. The inhibitor concentration is represented by X, IC50 is the concentration at 50% maximal value, and Hill Slope is the slope factor.

Sequence of recombinant 17β-HSD13 protein (Q7Z5P4 20-300): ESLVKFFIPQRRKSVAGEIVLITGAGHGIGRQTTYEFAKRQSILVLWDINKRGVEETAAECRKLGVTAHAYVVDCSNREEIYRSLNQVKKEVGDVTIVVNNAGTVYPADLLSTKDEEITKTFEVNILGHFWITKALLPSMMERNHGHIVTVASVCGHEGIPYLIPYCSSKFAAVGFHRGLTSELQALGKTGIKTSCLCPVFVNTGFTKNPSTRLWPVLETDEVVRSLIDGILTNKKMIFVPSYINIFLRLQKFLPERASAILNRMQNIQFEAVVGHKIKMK

Compound	IC50 [nM]
O=C1N(CC(F)(F)F)C(=O)C2(CC2)N1Cc1nnc(-c2cncc(O)c2Cl)s1 [Compound I-18, 4-((5-(4-chloro-5-hydroxypyridin-3-yl)-1,3,4-thiadiazol-2-yl)methyl)-6-(2,2,2-trifluoroethyl)-4,6-diazaspiro[2.4]heptane-5,7-dione]	193
O=C1N(C2CC2)C(=O)C2(CC2)N1Cc1nnc(-c2ccc(F)c(O)c2F)s1 [Compound I-43, 6-cyclopropyl-4-((5-(2,4-difluoro-3-hydroxyphenyl)-1,3,4-thiadiazol-2-yl)methyl)-4,6-diazaspiro[2.4]heptane-5,7-dione]	18.5
CC(C)N1C(=O)N(Cc2nnc(-c3ccc(F)c(O)n3)s2)C2(CC2)C1=O [Compound I-76, 4-((5-(5-fluoro-6-hydroxypyridin-2-yl)-1,3,4-thiadiazol-2-yl)methyl)-6-isopropyl-4,6-diazaspiro[2.4]heptane-5,7-dione]	1390
O=C1N(Cc2ccccc2)C(=O)C2(CC2)N1Cc1nnc(-c2cc(C(F)(F)F)c(F)c(O)n2)s1 [Compound I-61, 6-benzyl-4-((5-(5-fluoro-6-hydroxy-4-(trifluoromethyl)pyridin-2-yl)-1,3,4-thiadiazol-2-yl)methyl)-4,6-diazaspiro[2.4]heptane-5,7-dione]	505
CCCCN1C(=O)N(Cc2nnc(-c3ccc(F)c(O)c3F)s2)C2(CC2)C1=O [Compound I-28, 6-butyl-4-((5-(2,4-difluoro-3-hydroxyphenyl)-1,3,4-thiadiazol-2-yl)methyl)-4,6-diazaspiro[2.4]heptane-5,7-dione]	8.11
O=C1N(CC(F)F)C(=O)C2(CC2)N1Cc1nnc(-c2ccc(F)c(O)c2F)s1 [Compound I-92, 4-((5-(2,4-difluoro-3-hydroxyphenyl)-1,3,4-thiadiazol-2-yl)methyl)-6-(2,2-difluoroethyl)-4,6-diazaspiro[2.4]heptane-5,7-dione]	14.3
O=C1N(Cc2nnc(-c3ccc(F)c(O)c3F)s2)C2(CC2)C(=O)N1C1(C(F)(F)F)CC1 [Compound I-87, 4-((5-(2,4-difluoro-3-hydroxyphenyl)-1,3,4-thiadiazol-2-yl)methyl)-6-(1-(trifluoromethyl)cyclopropyl)-4,6-diazaspiro[2.4]heptane-5,7-dione]	11.3
(R)-4-((5-(2,4-difluoro-3- hydroxyphenyl)-1,3,4-thiadiazol-2- yl)methyl)-6-(1-hydroxypropan-2- yl)-4,6-diazaspiro[2.4]heptane-5,7- dione [Compound I-46]	66
C[C@H](COCC(=O)O)N1C(=O)N(Cc2nnc(-c3ccc(F)c(O)c3F)s2)C2(CC2)C1=O [Compound I-48]	1060
CC[C@@H](C)N1C(=O)N(Cc2nnc(-c3ccc(F)c(O)n3)s2)C2(CC2)C1=O [Compound I-77, (R)-6-(sec-butyl)-4-((5-(5-fluoro-6-hydroxypyridin-2-yl)-1,3,4-thiadiazol-2-yl)methyl)-4,6-diazaspiro[2.4]heptane-5,7-dione]	1060
CCN1C(=O)N(Cc2nnc(-c3ccc(Cl)c(O)c3F)s2)C2(CC2)C1=O [Compound I-23, 4-[[5-(4-chloro-2-fluoro-3-hydroxy-phenyl)-1,3,4-thiadiazol-2-yl]methyl]-6-ethyl-4,6-diazaspiro[2.4]heptane-5,7-dione]	78.8
O=C1N(CC(F)(F)F)C(=O)C2(CC2)N1Cc1nnc(-c2ccc(Cl)c(O)c2Cl)s1 [Compound I-17, 4-((5-(2,4-dichloro-3-hydroxyphenyl)-1,3,4-thiadiazol-2-yl)methyl)-6-(2,2,2-trifluoroethyl)-4,6-diazaspiro[2.4]heptane-5,7-dione]	106
O=C1N([C@@H](c2ccccc2)C(F)(F)F)C(=O)C2(CC2)N1Cc1nnc(-c2ccc(F)c(O)n2)s1 [Compound I-88, (S)-4-((5-(5-fluoro-6-hydroxypyridin-2-yl)-1,3,4-thiadiazol-2-yl)methyl)-6-(2,2,2-trifluoro-1-phenylethyl)-4,6-diazaspiro[2.4]heptane-5,7-dione]	29.1
O=C1NC(=O)C2(CC2)N1Cc1nnc(-c2ccc(F)c(O)c2F)s1 [Compound I-27, 4-((5-(2,4-difluoro-3-hydroxyphenyl)-1,3,4-thiadiazol-2-yl)methyl)-4,6-diazaspiro[2.4]heptane-5,7-dione]	355

More lines, in order of falling IC50, values ahead:

IC50 [nM]	Compound
1360	CCN1C(=O)N(Cc2nnc(-c3ccc(F)c(O)n3)s2)C2(CC2)C1=O [Compound I-75, 6-ethyl-4-((5-(5-fluoro-6-hydroxypyridin-2-yl)-1,3,4-thiadiazol-2-yl)methyl)-4,6-diazaspiro[2.4]heptane-5,7-dione]
602	CC(C)(C)N1C(=O)N(Cc2nnc(-c3ccc(F)c(O)n3)s2)C2(CC2)C1=O [Compound I-81, 6-(tert-butyl)-4-((5-(5-fluoro-6-hydroxypyridin-2-yl)-1,3,4-thiadiazol-2-yl)methyl)-4,6-diazaspiro[2.4]heptane-5,7-dione]
426	C[C@@H](COCC(=O)O)N1C(=O)N(Cc2nnc(-c3ccc(F)c(O)c3F)s2)C2(CC2)C1=O [Compound I-49]
323	CCN1C(=O)N(Cc2nnc(-c3cnc(Cl)c(O)c3)s2)C2(CC2)C1=O [Compound I-12, 4-((5-(6-chloro-5-hydroxypyridin-3-yl)-1,3,4-thiadiazol-2-yl)methyl)-6-ethyl-4,6-diazaspiro[2.4]heptane-5,7-dione]
245	CCN1C(=O)N(Cc2nnc(-c3cncc(O)c3Cl)s2)C2(CC2)C1=O [Compound I-11, 4-((5-(4-chloro-5-hydroxypyridin-3-yl)-1,3,4-thiadiazol-2-yl)methyl)-6-ethyl-4,6-diazaspiro[2.4]heptane-5,7-dione]
176	O=C1N(Cc2nnc(-c3ccc(F)c(O)n3)s2)C2(CC2)C(=O)N1C1(c2ccccc2)CC1 [Compound I-104, 4-((5-(5-fluoro-6-hydroxypyridin-2-yl)-1,3,4-thiadiazol-2-yl)methyl)-6-(1-phenylcyclopropyl)-4,6-diazaspiro[2.4]heptane-5,7-dione]
161	O=C1N(Cc2ccccc2)C(=O)C2(CC2)N1Cc1nnc(-c2nc(C(F)(F)F)c(F)c(O)c2F)s1 [Compound I-59, 6-benzyl-4-((5-(3,5-difluoro-4-hydroxy-6-(trifluoromethyl)pyridin-2-yl)-1,3,4-thiadiazol-2-yl)methyl)-4,6-diazaspiro[2.4]heptane-5,7-dione]
156	CCN1C(=O)N(Cc2nnc(-c3cnc(F)c(O)c3)s2)C2(CC2)C1=O [Compound I-2, 6-ethyl-4-((5-(6-fluoro-5-hydroxypyridin-3-yl)-1,3,4-thiadiazol-2-yl)methyl)-4,6-diazaspiro[2.4]heptane-5,7-dione]
147	O=C1N(Cc2ccccc2)C(=O)C2(CC2)N1Cc1nnc(-c2ccc(F)c(O)n2)s1 [Compound I-74, 6-benzyl-4-((5-(5-fluoro-6-hydroxypyridin-2-yl)-1,3,4-thiadiazol-2-yl)methyl)-4,6-diazaspiro[2.4]heptane-5,7-dione]
122	C[C@H](c1ccccc1)N1C(=O)N(Cc2nnc(-c3ccc(F)c(O)n3)s2)C2(CC2)C1=O [Compound I-79, (R)-4-((5-(5-fluoro-6-hydroxypyridin-2-yl)-1,3,4-thiadiazol-2-yl)methyl)-6-(1-phenylethyl)-4,6-diazaspiro[2.4]heptane-5,7-dione]
76.8	C[C@@H](c1ccccc1)N1C(=O)N(Cc2nnc(-c3ccc(F)c(O)n3)s2)C2(CC2)C1=O [Compound I-80, (S)-4-((5-(5-fluoro-6-hydroxypyridin-2-yl)-1,3,4-thiadiazol-2-yl)methyl)-6-(1-phenylethyl)-4,6-diazaspiro[2.4]heptane-5,7-dione]
38.5	O=C1N(Cc2ccccc2)C(=O)C2(CC2)N1Cc1nnc(-c2ccc(Cl)c(O)c2Cl)s1 [Compound I-36, 6-benzyl-4-((5-(2,4-dichloro-3-hydroxyphenyl)-1,3,4-thiadiazol-2-yl)methyl)-4,6-diazaspiro[2.4]heptane-5,7-dione]
18.6	O=C1N(CCC(F)(F)F)C(=O)C2(CC2)N1Cc1nnc(-c2ccc(F)c(O)c2F)s1 [Compound I-29, 4-((5-(2,4-difluoro-3-hydroxyphenyl)-1,3,4-thiadiazol-2-yl)methyl)-6-(3,3,3-trifluoropropyl)-4,6-diazaspiro[2.4]heptane-5,7-dione]
15.6	O=C1N(C(c2ccc(F)cc2F)C(F)(F)F)C(=O)C2(CC2)N1Cc1nnc(-c2ccc(F)c(O)n2)s1 (stereo not drawn) [Compound I-89, 6-(1-(2,4-difluorophenyl)-2,2,2-trifluoroethyl)-4-((5-(5-fluoro-6-hydroxypyridin-2-yl)-1,3,4-thiadiazol-2-yl)methyl)-4,6-diazaspiro[2.4]heptane-5,7-dione]
13.2	O=C1N(c2ccccc2)C(=O)C2(CC2)N1Cc1nnc(-c2ccc(F)c(O)c2F)s1 [Compound I-85, 4-((5-(2,4-difluoro-3-hydroxyphenyl)-1,3,4-thiadiazol-2-yl)methyl)-6-phenyl-4,6-diazaspiro[2.4]heptane-5,7-dione]
12.5	O=C1N(CC(F)(F)F)C(=O)C2(CC2)N1Cc1nnc(-c2cc(C(F)(F)F)c(F)c(O)c2F)s1 [Compound I-56, 4-((5-(2,4-difluoro-3-hydroxy-5-(trifluoromethyl)phenyl)-1,3,4-thiadiazol-2-yl)methyl)-6-(2,2,2-trifluoroethyl)-4,6-diazaspiro[2.4]heptane-5,7-dione]

From patent US20250026745A1 (Bluejay Therapeutics, Inc., priority 2023, published 2025)
